This note sets out measurements from US20250346903A1, “USE OF CONJUGATES OF MICRORNA AND CARDIAC TARGETING PEPTIDES FOR TREATING HEART FAILURE” (Georgetown University, priority 2022, published 2025).

The test system of series [1] is GRK2. The series is described as follows: Western blot of GRK2 in PE/Ang2-treated HCMs. In kind it is cell-based, human. The settings on record: HCMs PE/Ang2 72 hours, then miRNA transfection. The method, then:
The effects of miRNA17, miRNA20a, miRNA93, and miRNA106a on GRK2 signaling were assessed in HCMs treated with PE/Ang2. GRK2 has been identified to cause heart failure when mis-expressed.
The HCMs were subjected to 72 hours of PE/Ang2 treatment, and were subsequently treated with miRNA17, miRNA20a, miRNA93, or miRNA106a, or with the CTP-miRNA106a conjugate.

For series [2], the system named is NfκB response element. The series is described as follows: NfκB response element luciferase assay in HCMs. In kind it is cell-based, human. The conditions noted are these: Ang2/PE 24 hours, miRNAs transfected. The source says: Once in the nucleus NfκB binds to an NfκB response element to initiate transcription of downstream genes. To study how the CTP-miRNA106a conjugate can impact this effect, a plasmid containing an NfκB response element driving luciferase production (Promega, Inc) was used to generate HCMs expressing this NfκB luciferase response element. […] Moreover, the effect of miRNA106a on impacting Ang2/PE-induced luciferase expression in HCMs was compared to miRNA17, miRNA20a, and miRNA93.

The test system of series [3] is CaMKIIδ. The series is described as follows: Western blot of CaMKIIδ in PE/Ang2-treated HCMs. In kind it is cell-based, human. The settings on record: 200 nM miRNA transfected, within 72 hours. The protocol: (§1) Human cardiomyocytes (HCMs) were subjected to 200 nM phenylephrine (PE) and 10 nM angiotensin 2 (Ang2) to induce hypertrophy (initial stages of heart failure). The HCMs were treated with PE/Ang2 for 24, 48, 72, 96, or 144 hours. Using TransIT-X2 transfection reagent, 200 nM of each miRNA, or in combination, was introduced into PE/Ang2-treated HCMs, followed by analyses of hypertrophic morphology and heart failure gene/protein expression.
(§2) The CTP-miRNA106a conjugate suppressed translation of each protein, as confirmed in three separate experiments. A significant difference was observed between each of the CTP-miRNA106a conjugate-treated set and PE/Ang2-treated HCMs after 144 hours, and no significant difference was observed between each of the CTP-miRNA106a conjugate-treated HCMs and untreated HCMs.
(In western blotting, separated proteins are transferred to a membrane and probed.)

The test system of series [4] is HDAC4. Briefly: Western blot of HDAC4 in PE/Ang2-treated HCMs. The class given is cell-based, human. The conditions noted are these: 200 nM miRNA transfected, within 72 hours. The protocol:
as §1, §2

Series [5] deals with 3′UTR of PLCβ1. Briefly: PLCβ1 3′UTR luciferase assay in HEK293 cells. The class given is cell-based, human. The conditions noted are these: miRNA transfected 24 hours after plasmid.
The test system of series [6] is PKC. Briefly: PKC localization in HCMs (anti-PKCα staining). The class given is cell-based, human. The conditions noted are these: PMA 30 minutes. The source says:
One potential mechanism of increased PLCβ1 expression is increased PKC activity. Thus, PKC localization was studied in treated HCMs. […] In HCMs treated with Ang2/PE, PKC was translocated to the plasma membrane (FIG. 12, Panel C).

In series [7] the test system is Connexin 43 (CNX43). The series is described as follows: CNX43 phosphorylation in HCMs (immunostaining). In kind it is cell-based, human. The settings on record: HCMs treated with PMA as a control. The protocol: Gap junction protein Connexin 43 (CNX43) is a known downstream target of PKC activity in cardiomyocytes. Thus, the effects of Ang2/PE and the CTP-microRNA106a on CNX43 in HCMs were studied. CNX43 is phosphorylated on serine 386 by PKCα. In untreated HCMs, gap junctions are prevalent (FIG. 14, Panel A), although only a few junctions are positive for phosphorylation of CNX43 (FIG. 14, Panel B). […] Phosphorylated CNX43 becomes widespread as HCMs are treated with Ang2/PE for 24 hours (FIG. 14, Panels E and F).

Series [8] deals with HDAC4. The series is described as follows: HDAC4 localization by immunofluorescence in HCMs. The class given is cell-based, human. The conditions noted are these: HCMs PE/Ang2 72 hours, treatment 24 hours. The source says: (§3) HDAC4 localization was also rescued by the CTP-miRNA106a conjugate. HDAC4 is nuclear in untreated HCMs (see FIG. 4, Panel C), but CaMKIIδ phosphorylation promotes HDAC4 movement into the cytoplasm (see FIG. 4, Panel D) (Hohl et al., 2013).

In series [9] the test system is HDAC4 3′UTR. Briefly: 3′UTR-luciferase assay, HDAC4. In kind it is cell-based, human. The settings on record: miRNA106a with transfection reagent.
Series [10] relates to IL-1β. Briefly: FACS of IL-1β expressing HCMs. In kind it is cell-based, human. The settings on record: miR106a (without CTP) transfected, then Ang2/PE. The source says:
(§4) To identify if activation of the NfκB pathway by Ang2/PE led to expression of genes that augment hypertrophy and heart failure, HCMs treated with Ang2/PE or treated with both Ang2/PE and the CTP-miRNA106a conjugated were compared to untreated control HCMs by FACS. […] In summary, the CTP-miRNA106a conjugated suppressed NfκB signaling activated by Ang2/PE.

Series [11] has as its system TNF-α. Briefly: FACS of TNF-α expressing HCMs. In kind it is cell-based, human. The settings on record: miR106a transfected, then Ang2/PE.
Source text: as §4

For series [12], the system named is CaMKIIδ 3′UTR. Briefly: 3′UTR-luciferase assay, CaMKIIδ. The conditions noted are these: miRNA106a with transfection reagent. The class given is cell-based, human.
For series [13], the system named is IL-6. The series is described as follows: FACS of IL-6 expressing HCMs. The settings on record: miR106a transfected, then Ang2/PE. The class given is cell-based, human.
Source text: as §4

Series [14] has as its system GRK2 3′UTR. Briefly: 3′UTR-luciferase assay, GRK2 (control). In kind it is cell-based, human. The conditions noted are these: miRNA106a with transfection reagent; control without target sequence.
Series [15] relates to Human cardiomyocytes (HCMs). The series is described as follows: Hypertrophic morphology / cell size of PE/Ang2-treated HCMs. The conditions noted are these: 200 nM transfection, 72 hours, no PE/Ang2. In kind it is cell-based. The method, then:
as §1, §3

Series [16] relates to HCMs. Briefly: Mitochondrial membrane potential, JC-1 staining of HCMs. The conditions noted are these: 200 nM miRNA106a transfected, 72 hours. The class given is cell-based, human. The protocol:
The effects of miRNA106a on mitochondrial health was assessed using the mitochondrial membrane potential (MMP) probe JC-1 staining. Healthy MMP is observed as JC-1 forms J-aggregates that fluoresce red (˜594 nm) while unhealthy MMP is recognized as green (˜488 nm) JC-1 monomers.

Take “miRNA17: microRNA, RNA sequence CAAAGUGCUUACAGUGCAGGUAG (SEQ ID NO 2) (listed as RNA, chemistry not given here)”: the GRK2 expression entry in series [1] is given as “returned to baseline levels”. In series [2], the “NfκB response element luciferase expression” value is recorded as “suppressed luciferase expression significantly”. In addition, in series [3], the “CaMKIIδ overexpression induced by PE/Ang2” value is given as “suppressed”. The “HDAC4 overexpression induced by PE/Ang2” value in series [4] was “suppressed”.

For “miRNA93: microRNA, RNA sequence CAAAGUGCUGUUCGUGCAGGUAG (SEQ ID NO 4) (listed as RNA, chemistry not given here)”, in series [1], the GRK2 expression result is reported as “returned to baseline levels”. In series [2], the “NfκB response element luciferase expression” value is listed as “lowered luciferase expression”. For the same molecule, the “CaMKIIδ overexpression induced by PE/Ang2” value in series [3] is reported as “suppressed”. Besides, the “HDAC4 overexpression induced by PE/Ang2” value in series [4] was “suppressed”. The “decrease of luciferase activity” value in series [5] was roughly 50%.

“miRNA20a: microRNA, RNA sequence UAAAGUGCUUAUAGUGCAGGUAG (SEQ ID NO 3) (listed as RNA, chemistry not given here)”: the GRK2 expression entry in [1] is “returned to baseline levels”. In addition, the “NfκB response element luciferase expression” value in [2] was “lowered luciferase expression”. Moreover, the “CaMKIIδ overexpression induced by PE/Ang2” value in [3] is given as “suppressed”. Also, in [4], the “HDAC4 overexpression induced by PE/Ang2” value is on record as “suppressed”.

As for `CCCCCCCCCCCCCC(=O)O[C@@H]1[C@@H](C)[C@@]2(O)[C@@H](C=C(CO)C[C@]3(O)C(=O)C(C)=C[C@@H]23)[C@@H]2C(C)(C)[C@]12OC(C)=O` [PMA, phorbal myristate acetate], the PKC localization entry in [6] was “localized to the plasma membrane”. In series [7], the “phosphorylated CNX43” value is listed as “the phosphorylation patterns are more robust”.

Regarding “miRNA106a: microRNA, RNA sequence AAAAGUGCUUACAGUGCAGGUAG (SEQ ID NO 1) (chemistry not given here)”, the HDAC4 localization entry in [8] is “HDAC4 re-entry into the nucleus”. Further, the GRK2 expression entry in [1] is “returned to baseline levels”. The “NfκB response element luciferase expression” value in series [2] was “suppressed luciferase expression significantly”. In addition, the “HDAC4 3′UTR luciferase expression” value in series [9] is “targets the 3′UTRs of both CaMKIIδ and HDAC4”. Also, the IL-1β expression result in series [10] was “reversal of IL-1ß expression back to normal, untreated levels”. Also, the TNF-α expression result in [11] is on record as “very similar results as IL-1β”. In addition, in series [12], the “CaMKIIδ 3′UTR luciferase expression” value is “targets the 3′UTRs of both CaMKIIδ and HDAC4”. In addition, the IL-6 expression entry in series [13] is recorded as “very similar results as IL-1β”. The “CaMKIIδ overexpression induced by PE/Ang2” value in series [3] is recorded as “suppressed”. Further, in [14], the “GRK2 3′UTR luciferase expression” value is reported as “no change in luciferase expression”. For the same molecule, the “HDAC4 overexpression induced by PE/Ang2” value in [4] was “suppressed”. Besides, the “growth in size (hypertrophy) in response to miRNA106a alone” value in series [15] is reported as “did not appear to grow in size”. Moreover, in series [5], the “decrease of luciferase activity” value was roughly 80%. Further, the “JC-1 red:green ratio versus untreated” value in series [16] is “no significant difference in red:green ratios”.
